# “Also recorded” adds a separate entry of the source.
# Tests used:
# sperm count and motility = experiment: Semen analysis after repeat single oral doses in male subjects with ED; assay type: in vivo, human; details: 5 mg or 10 mg, four weekly doses; Day -7 versus Week 4
# Protocol: On Day-7, and at the Week 1 (Day 1), Week 2, Week 3, Week 4 and Follow-up visits, all groups were asked to complete the IIEF-15 questionnaire. Group 2 was asked to complete a Visual Stimulation Assessment using a RigiScan Plus Monitor on Day-7, Week 1 (Day 1) and Week 4. Group 2 was also required to provide blood samples for pharmacokinetic assessment on Week 1 (Day 1) and Week 4. Group 3 was required to provide semen samples on Day-7 and Week 4.
# (§1) Efficacy was assessed through the International Index of Erectile Function (IIEF)-15 questionnaire. The change from baseline in responses to questions of the IIEF-15 questionnaire, including questions regarding erectile function, orgasmic function, sexual desire, intercourse satisfaction and overall satisfaction domain scores, was determined at different time points of the study. RigiScan assessments during the stimulus assessment, and sperm count and motility by semen sample collection was used for efficacy evaluation. Safety was assessed through AE reporting, 12-lead ECG, vital signs, physical examinations and clinical laboratory evaluations. Pharmacokinetics was assessed by blood sampling.
# [1] = system: male subjects with erectile dysfunction (ED); experiment: Treatment-emergent adverse events after repeat single oral doses in male subjects with ED; assay type: in vivo, human
# Protocol: Treatment-related adverse events are adverse events which could either be possibly or probably related to the treatment.
# 130 subjects were divided into 3 groups upon which the study was conducted in parallel. Each subject was dosed on four occasions with either 5 mg IP2015, 10 mg IP2015 or matched placebo. In each group, subjects were randomised evenly to each of the three study treatments and received the same treatment at each visit.
# There were three potential study treatments of 5 mg IP2015, 10 mg IP2015 or matched placebo. In each group, subjects were randomised evenly to each of the three study treatments and received the same treatment on each visit. IP2015 or matched placebo was administered once in the morning of Week 1 (Day 1), Week 2, Week 3, and Week 4 as an oral solution in the fasted state. The dose was taken with 240 ml of water at room temperature. Subjects had fasted 2 hours prior to dosing until 4 hours postdose. Water was allowed ad libitum except for 1 hour before and 1 hour after dosing.
# as §1
compound,measurement,setting,value
"COc1cc2ccc(OC3CC4CCC(C3)N4)cc2oc1=O (stereo not shown) [IP2015, 7-[(8-azabicyclo[3.2.1]octan-3-yl)oxy]-3-methoxy-chromen-2-one]","sperm count, motility, or morphology",sperm count and motility,"did not have negative effects on sperm count, motility, or morphology"
same,"Any TEAE, number of events","[1]; 5 mg, N = 42",61
same,"Any TEAE, subjects (%)","[1]; 5 mg, N = 42",32 (76.2%)
same,"Dizziness, number of events","[1]; 5 mg, N = 42",3
same,"Dizziness, subjects (%)","[1]; 5 mg, N = 42",3 (7.1%)
same,"Headache, number of events","[1]; 5 mg, N = 42",15
same,"Headache, subjects (%)","[1]; 5 mg, N = 42",11 (26.2%)
same,"Mild TEAE, number of events","[1]; 5 mg, N = 42",56
same,"Mild TEAE, subjects (%)","[1]; 5 mg, N = 42",29 (69.0%)
same,"Moderate TEAE, number of events","[1]; 5 mg, N = 42",5
same,"Moderate TEAE, subjects (%)","[1]; 5 mg, N = 42",3 (7.1%)
same,"Nausea, number of events","[1]; 5 mg, N = 42",1
same,"Nausea, subjects (%)","[1]; 5 mg, N = 42",1 (2.4%)
same,"Related TEAE, number of events","[1]; 5 mg, N = 42",19
same,"Related TEAE, subjects (%)","[1]; 5 mg, N = 42",10 (23.8%)
same,Severe TEAE,"[1]; 5 mg, N = 42",0
same,"TEAEs, high dose compared to low dose",[1]; 10 mg versus 5 mg,slightly increased in the high dose compared to the low dose
same,"Any TEAE, number of events","[1]; 10 mg, N = 43",141
same,"Any TEAE, subjects (%)","[1]; 10 mg, N = 43",34 (79.1%)
same,"Dizziness, number of events","[1]; 10 mg, N = 43",15
same,"Dizziness, subjects (%)","[1]; 10 mg, N = 43",12 (27.9%)
same,"Headache, number of events","[1]; 10 mg, N = 43",27
same,"Headache, subjects (%)","[1]; 10 mg, N = 43",16 (37.2%)
same,"Mild TEAE, number of events","[1]; 10 mg, N = 43",132
same,"Mild TEAE, subjects (%)","[1]; 10 mg, N = 43",33 (76.7%)
same,"Moderate TEAE, number of events","[1]; 10 mg, N = 43",9
same,"Moderate TEAE, subjects (%)","[1]; 10 mg, N = 43",7 (16.3%)
same,"Nausea, number of events","[1]; 10 mg, N = 43",15
same,"Nausea, subjects (%)","[1]; 10 mg, N = 43",8 (18.6%)
same,"Related TEAE, number of events","[1]; 10 mg, N = 43",84
same,"Related TEAE, subjects (%)","[1]; 10 mg, N = 43",23 (53.5%)
same,Severe TEAE,"[1]; 10 mg, N = 43",0
same,severe side effects,"[1]; any of the doses (5 mg, 10 mg)",No severe side effects were observed; also recorded: No severe TEAEs were present
same,treatment-emergent adverse effects versus placebo group,[1]; low-dose (5 mg),comparable to the placebo group

# Source: US20260216166A1, “COMPOUND FOR TREATMENT OF ERECTILE DYSFUNCTION” (Initiator Pharma A/S, priority 2023, published 2026)
